Experimental data reported in patent US5326766A, “4-(2-(4-(2-pyridinyloxy)phenyl)ethoxy)quinazoline and analogues thereof” (priority 1992, dated 1994).

Legend:
[1] = test system: Pyricularia oryzae (rice blast); test: whole plant or invertebrate; assay type: in vivo; settings: Pyricularia oryzae, foliar, read-out: PYRIOR disease control, host rice; foliar spray; 400 ppm (+++: 100 ppm)
[2] = test system: aster leafhopper (Macrosteles fascifrons); test: whole plant or invertebrate; assay type: in vivo; settings: Macrosteles fascifrons, 24 h, read-out: ALH percent mortality
Method: (§1) The compounds identified in Table I were tested for miticidal and insecticidal activity against eight species. The following abbreviations are used in the Table III:
ALH refers to aster leafhopper
(§2) In conducting evaluations of insecticidal activity, each test compound was formulated as a 400 ppm solution, and this solution was then diluted with water to give lesser concentrations. The 400 ppm solution was prepared by combining 19.2 mL of 0.05% solution of Tween 20 (polyoxyethylene (20) sorbitan monolaurate) in water with a solution of 8 mg of the compound in 0.8 mL of acetone/EtOH (9/1).
Activity against aster leafhopper (Macrosteles fascifrons) was tested as follows. The test was run using concentrations of 400 ppm and 50 ppm. One ounce plastic cups containing a cotton wick was sprayed with 0.4 mL of formulated material using a flat-fan nozzle. The excess moisture was allowed to evaporate. Then five to ten carbon dioxide anesthetized adult leafhoppers were added to each cup. The cups were capped and held at room temperature for 24 hours. Percent mortality was then determined.

[3] = test system: beet armyworm (Spodoptera exiqua); test: Activity against beet armyworm; assay type: in vivo; settings: Spodoptera, 144 h, 6 days, read-out: BAW activity (rated on live and dead larvae and size of live larvae)
Method: as §1
BAW refers to beet armyworm
as §2
Activity against beet armyworm (Spodoptera exiqua) was evaluated as follows. The test is run using concentrations of 400 ppm and 50 ppm. A general purpose lepidoptera artificial diet was diluted to half strength with a 5% non nutritive agar. 8 mL of this diet material was dispensed into one ounce diet cups. One hour prior to treatment, 35 to 40 eggs were dispensed onto the diet surface. The cups were then sprayed with formulated material through a flat-fan nozzle. Treated cups were air dried prior to sealing with plastic caps. The cups were held for 6 days at room temperature. Activity was then rated based on the total number of live and dead larvae, and on the size of live larvae.

[4] = test system: Southern corn rootworm (Diabrotica undecimpuctata howardi Barber); test: whole plant or invertebrate; assay type: in vivo; settings: 400 ppm, soil concentration of 24 ppm, 3-4 days, read-out: SCRW mortality
Method: as §1
SCRW refers to southern corn rootworm
as §2
Activity on Southern corn rootworm (Diabrotica undecimpuctata howardi Barber) was evaluated by adding one mL of test solution containing a predetermined concentration of test compound to a cup containing a kernel of corn in 16 g of sterile soil. This produces a soil concentration of 24 ppm. After 1.5 to 2 hours of drying, five 4th instar corn rootworm larvae were added to the individual cups. Mortality was measured at 3-4 days by emptying the cup onto a pan and inspecting the soil for live rootworms.

[5] = test system: tobacco budworm (Heliothis virescens); test: Activity against tobacco budworm; assay type: in vivo; settings: Heliothis virescens, 144 h, 6 days, read-out: TBW activity (rated on live and dead larvae and size of live larvae)
Method: as §1
TBW refers to tobacco budworm
as §2
Activity against tobacco budworm (Heliothis virescens) was evaluated as follows. A general purpose lepidoptera artificial diet was diluted to half strength with a 5% non nutritive agar. 8 mL of this diet material was dispensed into each one ounce diet cup. One hour prior to treatment 18 to 20 eggs were dispensed onto the diet surface. The cups were then sprayed with formulated material through a flat-fan nozzle. The test was run using concentrations of 400 ppm and 50 ppm. Treated cups were air dried prior to sealing with plastic caps. The cups were held for 6 days at room temperature. Activity was then rated based on the total number of live and dead larvae, and on the size of live larvae.

[6] = test system: German cockroach (Blattella germanicus); test: whole plant or invertebrate; assay type: in vivo; settings: 240 h, ten days, read-out: GECR activity (rated on live and dead insects)
Method: as §1
GECR refers to German cockroach
as §2
Activity against German cockroach (Blattella germanicus) was evaluated as follows. 8 mL of alfalfa based green insect diet material was dispensed into a one ounce diet cup. The cups were then sprayed with formulated material through a flat-fan nozzle. The test was run using concentrations of 400 ppm and 50 ppm. Treated cups were air dried for 24 hours and infested with five late third or early fourth instar German cockroaches. The cups were capped and held for ten days in an environmental growth chamber at a temperature of […]. Activity was then rated based on the total number of live and dead insects.

[7] = test system: cotton aphid (Aphis gossypii); test: whole plant or invertebrate; settings: 72 h; for mortality at 50 ppm: read-out: CA activity (percent based on aphids present in plants sprayed with solvent alone), 50 ppm, squash plants, three days after treatment; for mortality at 400 ppm: read-out: CA activity (percent based on aphids present in plants sprayed with solvent alone), 400 ppm, squash plants, three days after treatment
[8] = test system: two spotted spider mite (Tetranychus urticae); test: whole plant or invertebrate; settings: 72 h; for mortality at 50 ppm: read-out: TSSM activity (percent based on mites present in plants sprayed with solvent alone), 50 ppm, squash plants, three days after treatment; for mortality at 400 ppm: read-out: TSSM activity (percent based on mites present in plants sprayed with solvent alone), 400 ppm, squash plants, three days after treatment
[9] = test system: Plasmopara viticola (downy mildew); test: Foliar spray fungicide test, Plasmopara viticola (downy mildew) on grape; settings: Plasmopara viticola, foliar, read-out: PLASVI disease control
Method: (§3) The test compounds were formulated for application by dissolving 50 mg of the compound into 1.25 ml of solvent. The solvent was prepared by mixing 50 ml of "Tween 20" (polyoxyethylene (20) sorbitan monolaurate emulsifier) with 475 ml of acetone and 475 ml of ethanol. The solvent/compound solution was diluted to 125 ml with deionized water. The resulting formulation contains 400 ppm test chemical. Lower concentrations were obtained by serial dilution with the solvent-surfactant mixture.
(§4) The formulated test compounds were applied by foliar spray.
(§5) The formulated technical compounds were sprayed on all foliar surfaces of the host plants to past run-off. Single pots of each host plant were placed on raised, revolving pedestals in a fume hood. Test solutions were sprayed on all foliar surfaces. All treatments were allowed to dry and the plants were inoculated with the appropriate pathogens within 24 hours.
(§6) The effectiveness of test compounds in controlling disease was rated using the following scale.

[10] = test system: Leptosphaeria nodorum (glume blotch); test: Foliar spray fungicide test, Leptosphaeria nodorum (glume blotch) on wheat; settings: Parastagonospora nodorum, in Triticum aestivum, foliar, read-out: LETPNO disease control, host wheat, 400 ppm (+++: 100 ppm)
Method: as §3, §4, §5, §6

[11] = test system: Puccinia recondita tritici (leaf rust); test: Foliar spray fungicide test, Puccinia recondita tritici (leaf rust) on wheat; settings: Puccinia recondita, in Triticum aestivum, foliar, read-out: PUCCRT disease control, host wheat, 400 ppm (+++: 100 ppm)
Method: as §3
(§7) The formulated test compounds were applied by foliar spray. The following plant pathogens and their corresponding plants were employed.
Puccinia recondita PUCCRT wheat
as §5, §6

[12] = test system: Erysiphe graminis tritici (powdery mildew); test: Foliar spray fungicide test, Erysiphe graminis tritici (powdery mildew) on wheat; settings: Blumeria graminis, in Triticum aestivum, foliar, read-out: ERYSGT disease control, host wheat, 400 ppm (+++: 100 ppm)
Method: as §3, §7, §5, §6

| Structure (SMILES) | pest or weed control at 400 µg/mL [1] [%] | mortality at 50 ppm [2] [%] | mortality at 400 ppm [2] [%] | pest or weed control at 50 ppm [3] [%] | pest or weed control at 400 ppm [3] [%] | mortality at 24 ppm [4] [%] | pest or weed control at 50 ppm [5] [%] | pest or weed control at 400 ppm [5] [%] | mortality at 50 ppm [6] [%] | mortality at 400 ppm [6] [%] | mortality at 50 ppm [7] [%] | mortality at 400 ppm [7] [%] | mortality at 50 ppm [8] [%] | mortality at 400 ppm [8] [%] | pest or weed control at 400 µg/mL [9] [%] | pest or weed control at 400 µg/mL [10] [%] | pest or weed control at 400 µg/mL [11] [%] | pest or weed control at 400 µg/mL [12] [%] |
| --- | --- | --- | --- | --- | --- | --- | --- | --- | --- | --- | --- | --- | --- | --- | --- | --- | --- | --- |
| Fc1cccc2c(NCCc3ccc(Oc4ncc(C(F)(F)F)cc4Cl)cc3)ncnc12 [Compound 1] | 90 to 100 | 100 | 100 | 100 | 100 | 80 | 100 | 0 | 0 | 20 | 0 | 0 | 0 | 0 | 90 to 100 | 90 to 100 | 90 to 100 | 90 to 100 |
| c1cnc(Oc2ccc(CCOc3ncnc4ccccc34)cc2)nc1 [Compound 45] | 90 to 100 | 60 | 40 | 100 | 100 | 0 | 100 | 100 | 0 | 20 | 100 | 100 | 40 | 60 | 90 to 100 | 0 to 19 | 90 to 100 | 90 to 100 |
| Fc1cccc2c(OCCc3ccc(Oc4cc(C(F)(F)F)ccn4)cc3)ncnc12 [Compound 12] | 90 to 100 | 80 | 100 | 100 | 100 | 0 | 70 | 100 | 0 | 60 | 100 | 100 | 90 | 100 | 90 to 100 | 20 to 89 | 90 to 100 | 90 to 100 |
| ClC(Cl)(Cl)c1ccc(Oc2ccc(CCOc3ncnc4ccccc34)cc2)nc1 [Compound 26] | 20 to 89 |  | 100 |  | 0 | 0 |  | 100 |  | 0 |  | 100 |  | 100 | 90 to 100 | 0 to 19 | 90 to 100 | 0 to 19 |
| Fc1cccc2ncnc(OCCc3ccc(Oc4ccc(Cl)cn4)cc3)c12 [Compound 16] | 90 to 100 | 80 | 100 | 100 | 100 | 80 | 100 | 100 | 0 | 40 | 100 | 100 | 100 | 100 | 90 to 100 | 20 to 89 | 90 to 100 | 90 to 100 |
| N#Cc1ccc(Oc2ccc(CCOc3ncnc4c(F)cccc34)cc2)nc1 [Compound 20] | 90 to 100 |  | 0 |  | 0 | 0 |  | 0 |  | 0 |  | 0 |  | 0 | 90 to 100 | 20 to 89 | 90 to 100 | 90 to 100 |
| Fc1cc(C(F)(F)F)cnc1Oc1ccc(CCNc2ncnc3c(F)cccc23)cc1 [Compound 6] | 90 to 100 | 100 | 100 | 100 | 100 | 0 | 100 | 100 | 40 | 20 | 0 | 0 | 0 | 0 | 90 to 100 | 90 to 100 | 90 to 100 | 90 to 100 |
| Fc1cccc2c(OCCc3ccc(Oc4ccc(C(Cl)(Cl)Cl)cn4)cc3)ncnc12 [Compound 25] | 20 to 89 |  | 0 |  | 0 | 0 |  | 100 |  | 0 |  | 85 |  | 90 | 90 to 100 | 0 to 19 | 90 to 100 | 20 to 89 |
| FC(F)(F)c1ccc(Oc2ccc(CCNc3ncnc4ccccc34)cc2)nc1 [Compound 29] | 90 to 100 | 100 | 100 | 100 | 100 | 100 | 100 | 100 | 0 | 20 | 90 | 100 | 100 | 100 | 90 to 100 | 20 to 89 | 90 to 100 | 90 to 100 |
